SMILES strings stand for the structures. Results filed as inconclusive are left out. Activity calls are given as the source filed them. The rule behind the calls is not given here; tested in MIN6 cells.

The test is described as follows: GFP-wavelength compound autofluorescence in cells – imaging, high-content imaging, artefact control, dose response (AID 2124).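 For all read-outs here: cells exposed to compound for 48 hours before fixing.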 Particulars: cells, GFP-channel autofluorescence, high-content imaging, at 10 µM; for z-score: stronger effect = higher value.

`Cc1ccc(CN=Cc2[nH]c3ccc(Br)c(Cl)c3c2O)cc1`: the z-score is -0.33 (inactive) and the cell count turned out to be 2930 cells.

For the compound `CCOc1ccc(NC(=S)N2CCC(N(C)CC3CCCO3)CC2)cc1` (stereo not drawn), the z-score was -0.33 (inactive) and the cell count is 2900 cells.

For `O=[N+]([O-])c1ccc(N/N=C/c2c[nH]c3ccccc23)cc1`, the z-score is 0.33 and the cell count worked out at 1200 cells.

For the compound `Nc1c(C(=O)Nc2nccs2)sc2nc(-c3cccs3)cc(C(F)(F)F)c12`, the z-score was 0.39 and the cell count was 2940 cells.

With `O=C(NCc1ccc(F)cc1)C1CCCN(S(=O)(=O)c2cccnc2)C1` (stereo not drawn), the z-score is -0.33 (inactive) and the cell count is 3070 cells.

As to `CN1CCN(c2ccc(/C=C3\C(=O)NC(=S)N(c4cccc(Br)c4)C3=O)o2)CC1`, the z-score was -0.26 (inactive) and the cell count worked out at 3260 cells.

For `OC(COc1cccc2ccccc12)CN1CCN(c2ccccc2Cl)CC1` (stereo not drawn), the z-score was -0.39 (inactive) and the cell count was determined as 3270 cells.

Turning to `COc1cc(Cl)c(C)cc1NC(=O)CN(C)Cc1cccc(OC)c1OC`, the z-score is -0.26 (inactive) and the cell count came to 2910 cells.

As for `CCc1nnc(NC(=O)CCC(=O)NCc2ccccc2OC)s1`, the z-score was -0.38 (inactive) and the cell count is 2890 cells.

Consider `CCOC(=O)CC1C(=O)NCCN1c1nc2c(C)cccn2c(=O)c1/C=C1\SC(=S)N(C(C)CC)C1=O` (stereo not drawn), for which the z-score was 0.45 and the cell count is 3100 cells.

`Cc1ccccc1SCc1noc(C(=O)NC(C)C)c1C(=O)O`: the z-score was -0.39 (inactive) and the cell count was 3150 cells.

In the case of `O=Cc1sc(Nc2ccccc2)nc1Cl`, the z-score was -0.31 (inactive) and the cell count is 3150 cells.

`CCCn1c(SCC(=O)NC2CCCCC2)nnc1-c1ccncc1`: the z-score is -0.25 (inactive) and the cell count worked out at 2960 cells.

Turning to `Cc1ccccc1-n1ncc2c(SCC(=O)NCc3cccs3)ncnc21`, the z-score is -0.38 (inactive) and the cell count is 2670 cells.

Turning to `O=C(NC1(C(F)(F)F)NC(=O)N(c2ccc(F)c(Cl)c2)C1=O)c1ccncc1` (stereo not drawn), the z-score was -0.39 (inactive) and the cell count was 3240 cells.

For `Cc1ccc(-c2ccc(/C=C(\C#N)C(=O)Nc3cc(C)nn3-c3ccccc3)o2)cc1`, the z-score is 1.66 and the cell count was 2460 cells.

With `CC1CCCCC1NC(=O)COC(=O)c1c2c(nc3ccccc13)/C(=C/c1ccco1)CC2` (stereo not drawn), the z-score was -0.35 (inactive) and the cell count came out at 2820 cells.

Turning to `CC(=O)c1sc2nc(-c3cccs3)cc(C(F)(F)F)c2c1N`, the z-score was 0.17 and the cell count stood at 3260 cells.

Regarding `C1=C(N2CCOCC2)/C(=C/c2nc3ccccc3[nH]2)CC1`, the z-score was -0.33 (inactive) and the cell count was 3040 cells.

On to `CCn1c(SCC(=O)c2c[nH]c3ccccc23)nc2cc(S(=O)(=O)N3CCOCC3)ccc21`, for which the z-score is -0.36 (inactive) and the cell count was determined as 3200 cells.

Regarding `CC(=O)Cc1cc(O)c2ccccc2c1OC(=O)c1ccc(Br)cc1`, the z-score was -0.26 (inactive) and the cell count was 2650 cells.

`Cc1ccn2c(NC3CCCCC3)c(C)nc2c1`: the z-score was -0.39 (inactive) and the cell count was determined as 2990 cells.

`O=C1S/C(=C\c2ccc(N3CCOCC3)o2)C(=O)N1Cc1ccc(F)cc1`: the z-score is 1.17 and the cell count came out at 665 cells.

Regarding `O=C(c1cccs1)c1no[n+]([O-])c1C(=O)c1cccs1`, the z-score was -0.31 (inactive) and the cell count was determined as 586 cells.

As for `CN(C)C=Nc1ccc2nn(-c3ccccc3)nc2c1`, the z-score was -0.34 (inactive) and the cell count worked out at 3050 cells.

Turning to `COc1nc(OC)nc(N2CCC(C(=O)NCc3cccs3)CC2)n1`, the z-score was -0.33 (inactive) and the cell count came out at 2940 cells.

With `N/C(=N\OC(=O)C1CCCCC1)c1cccc([N+](=O)[O-])c1`, the z-score was -0.33 (inactive) and the cell count amounted to 3090 cells.

On to `COC(=O)c1sc2ccccc2c1-n1cccc1C(=O)C(=O)Nc1ccc(F)cc1`, for which the z-score is -0.38 (inactive) and the cell count came to 3000 cells.

Take `Cc1ccc(/C=[N+](\[O-])c2ccc(N(C)C)cc2)c2nsnc12`: the z-score is -0.38 (inactive) and the cell count is 1880 cells.

For the compound `N#Cc1ccc(-c2ccc(Cl)cc2)nc1SCC(=O)c1cccc(Cl)c1`, the z-score is -0.27 (inactive) and the cell count is 3130 cells.

In the case of `CSc1c(C#N)c(N)nc2sc(C(=O)c3ccc(Cl)c(Cl)c3)c(N)c12`, the z-score is -0.28 (inactive) and the cell count is 2770 cells.

As for `O=C(COc1ccccc1)N1CCN=C1c1ccccc1`, the z-score was -0.33 (inactive) and the cell count was 3190 cells.

For the compound `O=C(O)c1cc(-c2ccncc2)nc2ccc(F)cc12`, the z-score is -0.39 (inactive) and the cell count worked out at 3070 cells.

As for `CCOC(=O)CN1CC23C=CC(O2)C(C(=O)Nc2cc(OC)ccc2OC)C3C1=O` (stereo not drawn), the z-score was -0.38 (inactive) and the cell count came out at 3210 cells.

Consider `Cc1c(C(c2ccc([N+](=O)[O-])cc2)c2c(C)n(C)n(-c3ccccc3)c2=O)c(=O)n(-c2ccccc2)n1C`, for which the z-score was -0.39 (inactive) and the cell count stood at 3040 cells.

Turning to `O=C(N/N=C\c1cn(-c2ccccc2)nc1-c1ccccc1)c1ccc(Br)o1`, the z-score was -0.32 (inactive) and the cell count is 626 cells.

For `CN(C)c1ccc(/C=N/NC(=O)CN(c2ccccc2Cl)S(C)(=O)=O)cc1Br`, the z-score is -0.39 (inactive) and the cell count worked out at 3330 cells.

As to `C=CCn1c(-c2oc3nc(-c4ccccc4)cc(-c4ccccc4)c3c2N)n[nH]c1=S`, the z-score was -0.33 (inactive) and the cell count is 2820 cells.

On to `O=c1c2ccccc2c(C=Nc2ccccc2O)c(O)n1-c1nccs1`, for which the z-score was -0.35 (inactive) and the cell count was found to be 2390 cells.

Turning to `CCCOc1cc(N(CC)CC)ccc1/C=C(/C#N)c1nc2ccc(C)cc2[nH]1`, the z-score was 0.73 and the cell count stood at 1370 cells.

As for `COc1ccc(C)cc1NC(=O)CC(NC(C)=O)c1ccccc1` (stereo not drawn), the z-score is -0.33 (inactive) and the cell count turned out to be 3060 cells.

With `COc1cc2c3nnc(-c4ccc(F)cc4)c-3cn(Cc3ccc(F)cc3)c2cc1OC`, the z-score was 2.53 and the cell count turned out to be 274 cells.

As for `O=C(/C=C/c1ccc2ccccc2n1)c1cc(Br)ccc1O`, the z-score was -0.24 (inactive) and the cell count was found to be 2620 cells.

Take `CCOC(=O)c1cnn(-c2cc(C)nc3c(-c4ccccc4)cnn23)c1N`: the z-score was -0.39 (inactive) and the cell count is 3280 cells.

Regarding `O=c1[nH]c2ccccc2nc1/C=C/c1ccc(F)cc1`, the z-score is -0.32 (inactive) and the cell count turned out to be 3060 cells.

With `CCN(CC)c1ccc(/C=C2\SC(=O)N(C(C)C)C2=O)o1`, the z-score was 0.48 and the cell count came out at 941 cells.

Consider `O=C(Nc1ccc(C2CCCCC2)cc1)C1CCCN(c2ncccn2)C1` (stereo not drawn), for which the z-score was -0.38 (inactive) and the cell count was 2990 cells.

Regarding `CN(C)c1ccc(/C=C2\SC(=S)N(Nc3ncc(C(F)(F)F)cc3Cl)C2=O)cc1`, the z-score is 0.57 and the cell count came to 2530 cells.

Turning to `COc1cc2cc(C)c3nnc(SCC(=O)Nc4cc(C)on4)n3c2cc1OC`, the z-score is -0.33 (inactive) and the cell count came to 2840 cells.

`CS(=O)(=O)ON=C1CCN(S(=O)(=O)c2ccccc2)CC1`: the z-score was -0.33 (inactive) and the cell count came out at 3400 cells.

On to `CC1=NNC(=O)C1CCC(=O)N/N=C/c1ccc(C)cc1` (stereo not drawn), for which the z-score was -0.39 (inactive) and the cell count turned out to be 3320 cells.

As for `CN1C2CCC1/C(=C/c1cccn1C)C(=O)/C2=C\c1cccn1C`, the z-score was -0.29 (inactive) and the cell count turned out to be 3280 cells.

In the case of `Cc1nn(-c2c(Cl)cc(Cl)cc2Cl)c(=O)c2ccccc12`, the z-score is -0.33 (inactive) and the cell count was 3220 cells.

`COc1cc2c(cc1NC(=O)CN1CCN(S(=O)(=O)c3ccccc3F)CC1)oc1ccccc12`: the z-score was -0.33 (inactive) and the cell count came out at 3180 cells.

For the compound `CCOc1ccc(NC2=NCC(=O)N2Cc2cccs2)cc1`, the z-score is -0.38 (inactive) and the cell count was determined as 3020 cells.

Consider `O=C(O)CC12CSc3[nH]c(=O)sc3C1c1ccccc1OC2=O` (stereo not drawn), for which the z-score is -0.33 (inactive) and the cell count is 3020 cells.

Consider `O=S(=O)([O-])CCC[n+]1c(/C=C\Nc2ccccc2)oc2ccc(-c3ccccc3)cc21`, for which the z-score was 1.34 and the cell count stood at 3120 cells.

Regarding `O=[N+]([O-])c1ccc(N/N=C/c2sc(N3CCOCC3)nc2-c2ccccc2)c(S(=O)(=O)Nc2ccccc2Cl)c1`, the z-score was 0.01 and the cell count was found to be 144 cells.

On to `O=C1/C(=N\S(=O)(=O)c2cccs2)C([n+]2cccc(Cc3ccccc3)c2)=C([O-])c2ccccc21`, for which the z-score was -0.31 (inactive) and the cell count came to 307 cells.

For `CC(=O)Nc1sc(/C(C#N)=C/c2ccc(Cl)c(Cl)c2)nc1-c1ccc(C)cc1`, the z-score was 1.08 and the cell count was 2880 cells.

With `CNC(=S)NNC(=O)c1oc2nc(-c3ccccc3)cc(-c3ccco3)c2c1N`, the z-score is -0.3 (inactive) and the cell count was 2940 cells.

Regarding `COc1cc(N2CCCC2)c(OC)cc1/C=C1/NC(=S)NC1=O`, the z-score is 0.59 and the cell count came out at 2940 cells.

With `O=C(NCCCN1CCCCCC1)C1CC(=O)N(C2CCCC2)C1` (stereo not drawn), the z-score was -0.33 (inactive) and the cell count was found to be 3260 cells.

Turning to `CCOc1ccc(CNC(=O)CCn2c(=O)oc3ccccc32)cc1`, the z-score was -0.38 (inactive) and the cell count is 3060 cells.
